Results reported in US20260184710A1, “CASITAS B-LINEAGE LYMPHOMA PROTOONCOGENE B (CBL-B) DEGRADING COMPOUNDS AND ASSOCIATED METHODS OF USE” (Arvinas Operations, Inc., priority 2022, published 2026).

Assays:
[1] = target: T1, Cbl-b (Homo sapiens, UniProt Q13191); test: Cbl-b Degradation Method A (FACS, anti-Cbl-b antibody staining); type: cell-based; conditions: Cbl-b-HiBit KI Jurkat Cells, incubated at least 20 hours; for DC50: half maximal degradation, read-out: Cbl-b Degredation Method A IC50; for Dmax: Jurkat, read-out: Cbl-b Degredation Method A Dmax (%)
T1 construct: Cbl-b-HiBit KI Jurkat Cells were purchased from Promega; host or cells: Cbl-b-HiBiT knock-in Jurkat cells
T1 sequence (Q13191 whole entry): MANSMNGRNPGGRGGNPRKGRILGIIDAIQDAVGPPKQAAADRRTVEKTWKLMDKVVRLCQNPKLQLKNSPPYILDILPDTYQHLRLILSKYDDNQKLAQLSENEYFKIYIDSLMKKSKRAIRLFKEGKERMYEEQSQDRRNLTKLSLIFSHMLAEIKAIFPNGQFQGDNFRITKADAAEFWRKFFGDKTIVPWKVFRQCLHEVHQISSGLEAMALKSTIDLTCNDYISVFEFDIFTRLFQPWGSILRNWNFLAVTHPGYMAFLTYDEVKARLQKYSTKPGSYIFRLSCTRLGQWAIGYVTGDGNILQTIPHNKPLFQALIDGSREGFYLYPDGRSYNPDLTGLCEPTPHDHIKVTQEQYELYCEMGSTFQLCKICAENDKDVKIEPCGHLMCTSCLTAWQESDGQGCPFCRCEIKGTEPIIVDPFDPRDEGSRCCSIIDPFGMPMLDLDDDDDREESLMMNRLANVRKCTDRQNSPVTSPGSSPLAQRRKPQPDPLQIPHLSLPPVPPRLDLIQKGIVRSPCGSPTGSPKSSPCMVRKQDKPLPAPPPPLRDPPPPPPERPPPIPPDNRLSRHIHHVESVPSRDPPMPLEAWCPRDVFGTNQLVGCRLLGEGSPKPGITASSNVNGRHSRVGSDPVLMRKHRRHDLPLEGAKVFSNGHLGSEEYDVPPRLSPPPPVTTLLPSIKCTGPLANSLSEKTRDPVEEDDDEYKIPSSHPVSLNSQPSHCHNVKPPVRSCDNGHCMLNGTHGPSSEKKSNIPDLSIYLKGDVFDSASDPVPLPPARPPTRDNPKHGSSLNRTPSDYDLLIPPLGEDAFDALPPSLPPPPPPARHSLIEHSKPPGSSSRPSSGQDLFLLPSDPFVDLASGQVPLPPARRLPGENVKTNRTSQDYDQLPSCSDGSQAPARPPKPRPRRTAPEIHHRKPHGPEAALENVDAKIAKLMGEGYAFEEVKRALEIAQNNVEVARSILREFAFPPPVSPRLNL
Method: Cbl-b Degradation Method A
Cbl-b-HiBit KI Jurkat Cells were purchased from Promega, and cell media consisted of RPMI 1640 with 10% FBS and 1% pen/strep. The cells were counted, measured for viability, and 100 μL of the cell solution was into 96 well flat bottom plates at a ratio of 290,000 cells per 100 μL. Compounds were dissolved in DMSO to make a 10 mM stock solution, which was diluted with cell media. 100 μL of the diluted compound mixture was added to the wells. The plate was incubated for at least 20 hours at 37° C. and 5% CO2. After incubation, the plate was shaken at 700-750 RMP for 15-30 minutes to ensure cells were removed from the wells. The wells were transferred to a 96-well v-bottom plate and spun for 2200 RPM for 3 minutes. The supernatant was removed, cells re-suspended in 100 μL of the fixative, and subsequently incubated at room temperature for 15 minutes. Afterwards, 150 μL of DPBS was added to each well, and the cells were centrifuged at 2500 RPM for 3 minutes. The supernatant was removed and the plate was chilled on ice for 2-3 minutes. While still on the ice, 100 μL of Perm III was added to each well, the wells mixed, and subsequently left on the ice for another 15 minutes. Afterwards, the plate was removed from the ice, 150 μL of DBPS was added to each well, and the cells centrifuged at 2700 RPM for 3 minutes. The supernatant was removed, and an additional 200 μL of was DPBS was added to each well, followed by centrifuging at 2700 RPM for 3 minutes, after which the supernatant was removed. The anti-Cbl-b antibody was diluted 1:200 in 1× Perm Wash buffer and 50 μL of the antibody mixture was added to each well and mixed. After addition, the plate was incubated for 35-45 minutes at room temperature. After incubation, 200 μL of DPBS was added to each wells, and the plate centrifuged at 2700 RPM for 3 minutes, followed by the removal of the supernatant. The washing step was repeated by adding 200 μL of DPBS to each wells followed by centrifuge at 2700 RPM for 3 minutes and removal of the supernatant. The a-Rabbit-AF488 antibody was diluted 1:1000 in Perm Wash buffer, 50 μL of the dilution added to each well, and mixed. After mixing, the plate was incubated for 30 minutes at room temperature in the dark. Subsequently, the supernatant was removed, and 200 μL of DBPS added to the cells, which were then centrifuged at 2900 RPM for 4 minutes. The supernatant was removed, and an additional 95 μL of DBPS was added to the wells and mixed. The cells were then transferred to a round bottom polypropylene plate and analyzed using FACS with the parameters below:
The concentration of an exemplary compound that leads to half maximal degradation (DC50) as well as the maximum degradation observed (Dmax, conventionally expressed as a percentage of control) is shown below in Table 2.

[2] = target: T1, Cbl-b; test: Cbl-b Degradation Method B (Nano-Glo HiBiT lytic detection); type: cell-based; conditions: Cbl-b-HiBit KI Jurkat Cells, incubated at least 6-24 hours; for DC50: half maximal degradation, read-out: Cbl-b Degredation Method B IC50; for Dmax / Cbl-b Degredation Method B Dmax (%): maximum degradation observed; for Dmax: read-out: Cbl-b Degredation Method B Dmax (%)
Summary of the method: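 An 11-point, 3-fold compound dilution was applied for 6-24 hours to Jurkat cells carrying HiBiT-tagged endogenous Cbl-b. Lytic HiBiT luminescence quantified residual protein. Outputs are DC50 and Dmax relative to DMSO control.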

Row | DC50 [1] [nM] | Dmax ([1]; maximum degradation observed) [%] | DC50 [2] [nM] | Dmax [2] [%] | Cbl-b Degredation Method A Dmax (%) ([1]; maximum degradation observed) | Cbl-b Degredation Method B Dmax (%) [2] | SMILES
1 | 5 to 50 | > 70 | < 5 | 35 to 70 | – | – | CC1c2nc(N3CCC(O[C@H]4CC[C@H](CN5CCN(Cc6cc7c(c(C(F)(F)F)c6)CN(c6cccc(C8(Cc9nncn9C)CCC8)c6)C7=O)CC5)CC4)CC3)ccc2C(=O)N1C1CCC(=O)NC1=O (mixture of isomers) [Example 232, rac-3-[7-methyl-5-oxo-2-(4-{[(1r,4r)-4-[(4-{[2-(3-{1-[(4-methyl-4H-1,2,4-triazol-3-yl)methyl]cyclobutyl}phenyl)-3-oxo-7-(trifluoromethyl)-2,3-dihydro-1H-isoindol-5-yl]methyl}piperazin-1-yl)methyl]cyclohexyl]oxy}piperidin-1-yl)-5H,6H,7H-pyrrolo[3,4-b]pyridin-6-yl]piperidine-2,6-dione]
2 | 5 to 50 | 35 to 70 | < 5 | 35 to 70 | – | – | CC1c2nc(N3CCC(O[C@H]4CC[C@H](CN5CCN(Cc6cc7c(c(C(F)(F)F)c6)CN(c6cccc(C8(Cc9nncn9C)CC8)c6)C7=O)CC5)CC4)CC3)ccc2C(=O)N1C1CCC(=O)NC1=O (mixture of isomers) [Example 234, rac-3-[7-methyl-5-oxo-2-(4-{[(1r,4r)-4-[(4-{[2-(3-{1-[(4-methyl-4H-1,2,4-triazol-3-yl)methyl]cyclopropyl}phenyl)-3-oxo-7-(trifluoromethyl)-2,3-dihydro-1H-isoindol-5-yl]methyl}piperazin-1-yl)methyl]cyclohexyl]oxy}piperidin-1-yl)-5H,6H,7H-pyrrolo[3,4-b]pyridin-6-yl]piperidine-2,6-dione]
3 | < 5 | > 70 | < 5 | > 70 | – | – | CC1c2nc(N3CCC(O[C@H]4CC[C@H](CN5CCN(Cc6cc7c(c(C(F)(F)F)c6)CN(c6cccc(C8(Cc9nncn9C)COC8)c6)C7=O)CC5(C)C)CC4)CC3)ccc2C(=O)N1C1CCC(=O)NC1=O (mixture of isomers) [Example 236, rac-3-[7-methyl-5-oxo-2-(4-{[(1r,4r)-4-[(2,2-dimethyl-4-{[2-(3-{3-[(4-methyl-4H-1,2,4-triazol-3-yl)methyl]oxetan-3-yl}phenyl)-3-oxo-7-(trifluoromethyl)-2,3-dihydro-1H-isoindol-5-yl]methyl}piperazin-1-yl)methyl]cyclohexyl]oxy}piperidin-1-yl)-5H,6H,7H-pyrrolo[3,4-b]pyridin-6-yl]piperidine-2,6-dione]
4 | < 5 | – | < 5 | – | B (35 < B < 70) | B (35 < B < 70) | CC(c1cc2c(c(C(F)(F)F)c1)CN(c1cccc(C3(Cc4nncn4C)COC3)c1)C2=O)N1CCN(C[C@H]2CC[C@H](OC3CCN(c4ccc5c(c4F)CN(C4CCC(=O)NC4=O)C5=O)CC3)CC2)CC1 (single isomer, unassigned) [Example 9, 3-[4-fluoro-1-oxo-5-(4-{[(1r, 4r)-4-[(4-{1-[2-(3-{3-[(4-methyl-4H-1,2,4-triazol-3-yl)methyl]oxetan-3-yl}phenyl)-3-oxo-7-(trifluoromethyl)-2,3-dihydro-1H-isoindol-5-yl]ethyl}piperazin-1-yl)methyl]cyclohexyl]oxy}piperidin-1-yl)-2,3-dihydro-1H-isoindol-2-yl]piperidine-2,6-dione]
5 | 50 to 500 | 35 to 70 | < 5 | – | – | C (C ≤ 35) | C[C@@H]1c2nc(N3CCC(O[C@H]4CC[C@H](CN5CCN(Cc6cc7c(c(C(F)(F)F)c6)CN(c6cccc(C8(Cc9nncn9C)CC(C#N)C8)c6)C7=O)C6(CC6)C5)CC4)CC3)ccc2C(=O)N1C1CCC(=O)NC1=O (single isomer, unassigned) [Example 304, (1r***,3r***)-3-[(4-methyl-4H-1,2,4-triazol-3-yl)methyl]-3-(3-{1-oxo-6-[(7-{[(1r**,4r**)-4-({1-[(7R*)-6-(2,6-dioxopiperidin-3-yl)-7-methyl-5-oxo-5H,6H,7H-pyrrolo[3,4-b]pyridin-2-yl]piperidin-4-yl}oxy)cyclohexyl]methyl}-4,7-diazaspiro[2.5]octan-4-yl)methyl]-4-(trifluoromethyl)-2,3-dihydro-1H-isoindol-2-yl}phenyl)cyclobutane-1-carbonitrile]
6 | 5 to 50 | 35 to 70 | – | – | – | – | Cc1cc(N2CCC(CN3CC4(C3)CN(C3=CC5C(=O)N(c6cccc([C@]7(Cc8nncn8C)C[C@@H](C#N)C7)c6)CC5C(C(F)(F)F)=C3)C4)CC2)c(F)c2c1C(=O)N(C1CCC(=O)NC1=O)C2 (stereo partly shown) [Example 189, (1r,3r)-3-(3-{6-[6-({1-[2-(2,6-dioxopiperidin-3-yl)-4-fluoro-7-methyl-1-oxo-2,3-dihydro-1H-isoindol-5-yl]piperidin-4-yl}methyl)-2,6-diazaspiro[3.3]heptan-2-yl]-1-oxo-4-(trifluoromethyl)-2,3,3a,7a-tetrahydro-1H-isoindol-2-yl}phenyl)-3-[(4-methyl-4H-1,2,4-triazol-3-yl)methyl]cyclobutane-1-carbonitrile]
7 | 5 to 50 | > 70 | – | – | – | – | Cc1cc(N2CCC(CN3CCC4(CC3)CN(c3cc5c(c(C(F)(F)F)c3)CN(c3cccc(C6(Cc7nncn7C)CCC6)c3)C5=O)C4)CC2)c(F)c2c1C(=O)N(C1CCC(=O)NC1=O)C2 (stereo not shown) [Example 190, 3-{4-fluoro-7-methyl-5-[4-({2-[2-(3-{1-[(4-methyl-4H-1,2,4-triazol-3-yl)methyl]cyclobutyl}phenyl)-3-oxo-7-(trifluoromethyl)-2,3-dihydro-1H-isoindol-5-yl]-2,7-diazaspiro[3.5]nonan-7-yl}methyl)piperidin-1-yl]-1-oxo-2,3-dihydro-1H-isoindol-2-yl}piperidine-2,6-dione]
8 | < 5 | 35 to 70 | – | – | – | – | Cc1cc(N2CCC(O[C@H]3CC[C@H](CN4CCN(Cc5cc6c(c(C(F)(F)F)c5)CN(c5cccc([C@]7(Cc8nncn8C)C[C@@H](C#N)C7)c5)C6=O)CC4)CC3)CC2)c(F)c2c1C(=O)N(C1CCC(=O)NC1=O)C2 (stereo partly shown) [Example 205, (1r,3r)-3-[(4-methyl-4H-1,2,4-triazol-3-yl)methyl]-3-(3-{1-oxo-6-[(4-{[(1r,4r)-4-({1-[2-(2,6-dioxopiperidin-3-yl)-4-fluoro-7-methyl-1-oxo-2,3-dihydro-1H-isoindol-5-yl]piperidin-4-yl}oxy)cyclohexyl]methyl}piperazin-1-yl)methyl]-4-(trifluoromethyl)-2,3-dihydro-1H-isoindol-2-yl}phenyl)cyclobutane-1-carbonitrile]
9 | 5 to 50 | > 70 | – | – | – | – | Cc1cc(N2CCC(O[C@H]3CC[C@H](CN4CCN(Cc5cc6c(c(C(F)(F)F)c5)CN(c5cccc(C7(Cc8nncn8C)CCC7)c5)C6=O)C(C)(C)C4)CC3)CC2)c(F)c2c1C(=O)N(C1CCC(=O)NC1=O)C2 (stereo partly shown) [Example 224, 3-[4-fluoro-7-methyl-1-oxo-5-(4-{[(1r,4r)-4-[(3,3-dimethyl-4-{[2-(3-{1-[(4-methyl-4H-1,2,4-triazol-3-yl)methyl]cyclobutyl}phenyl)-3-oxo-7-(trifluoromethyl)-2,3-dihydro-1H-isoindol-5-yl]methyl}piperazin-1-yl)methyl]cyclohexyl]oxy}piperidin-1-yl)-2,3-dihydro-1H-isoindol-2-yl]piperidine-2,6-dione]
